Experimental findings from patent US12239643B2, “Therapeutic agent for inflammatory diseases, autoimmune diseases, fibrotic diseases, and cancer diseases” (MEIJI SEIKA PHARMA CO., LTD., priority 2018, dated 2025) are described below.

Read-outs that look alike come from different tables or passages of the source.

For assay [1], the system named is PDE4. As to the kind of experiment: Evaluation of PDE4 inhibitory activity, scintillation proximity assay. It counts as biochemical. As to conditions: for PDE4 inhibitory activity: summary in words of Tables 57 to 69. A digest of the protocol: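 IC50 was derived from inhibition curves, referenced to an enzyme-free blank and a DMSO-only control. Compound, PDE4 preparation and tritiated cAMP reacted 120 min at RT in Tris-HCl buffer (pH 7.4) with MgCl2, EGTA and BSA; YSi-SPA beads with ZnSO4 bound product before scintillation counting.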

Assay [2] deals with oxazolone-induced auricle edema, BALB/c mice. The assay is described as follows: Mouse delayed type hypersensitivity (DTH) model (topical). It counts as in vivo. As to conditions: 20 μL applied to auricle, 24 hours after application. Here is the method: Evaluation was carried out using female BALB/c mice (7 to 8 weeks of age). First, the hair of the abdomen of the mice was treated with a hair clipper, and then 150 μL of a 3% oxazolone acetone/ethanol solution was applied to the abdomen as a hapten. Five days later, 20 μL/ear of a 1% oxazolone.acetone/ethanol solution was applied to the outer surface of the auricle of both ears of the mouse to induce inflammation. Thirty minutes after the start of inflammation induction, 20 μL of the test compound dissolved in an acetone/ethanol solution was applied to the auricle. A 1% oxazolone was not applied to the blank. The control was one in which 1% oxazolone was applied and only an acetone/ethanol solution was applied without using the test compound. The auricle thickness 24 hours after application of the test compound was measured with a dial thickness gauge, and the value obtained by subtracting the blank value was used to calculate the edema suppression rate by the following formula. Edema Suppression Rate (%)={1−(Value at Addition of Each Test Compound−Blank Value)/(Control Value−Blank Value)}×100 The measurement results obtained by measuring the edema suppression rate at the time of topical administration of each test compound by the above method were evaluated in accordance with the following evaluated basis; A: 60% or more, B: 40% or more and less than 60%, and C: less than 40%.

The test system of assay [3] is TGF-β. The assay is described as follows: TGF-β inhibitory activity using THP1 cells differentiated into macrophages. It counts as cell-based. As to conditions: Homo sapiens, read-out: TFG-β Inhibitory Activity (Test Example 6). Here is the method: The TGF-β inhibitory activity was measured using THP1 cells as follows. First, THP1 cells were seeded on a 24-well culture plate at […], and culture was carried out overnight at 37° C. and 5% CO2 in RPMI-1640 medium (containing 10% fetal bovine serum, penicillin, and streptomycin) supplemented with 100 nM phorbol myristate acetate. After that, the cells were differentiated into macrophages by changing to RPMI-1640 medium without phorbol myristate acetate, followed by further culture at 37° C. under 5% CO2 overnight. Next, the THP1 culture plate was washed once with PBS(−) 1 mL/well, and then the test compound and lipopolysaccharide (final concentration 1 μg/mL) were added, followed by culture at 37° C. under 5% CO2 for about 7 hours. After culturing, the entire amount of the medium was collected, and the amount of TGF-β in the centrifuged supernatant was quantified by the sandwich ELISA method. The non-addition of lipopolysaccharide was used as a blank, and the control was obtained by adding only dimethyl sulfoxide instead of the test compound, and the inhibition rate of the test compound against the control was calculated by the following formula. Inhibition Rate (%)={1−(Value at Addition of Each Test Compound−Blank Value)/(Control Value−Blank Value)}×100
In addition, the TGF-β inhibitory activity (concentration for the inhibition rate of 50%) of the test compound was calculated from the inhibition curves based on the inhibition rate for various concentrations of the test compound.
The measurement results obtained by measuring the TFG-β inhibitory activity (50% inhibitory concentration) of the test compounds by the above method were evaluated in accordance with the following evaluated basis; A: less than 1 μM, and B: 1 μM or more.

Assay [4] concerns TNFα. As to the kind of experiment: Cytokine suppression using whole human blood: TNFα (lipopolysaccharide stimulus). It counts as cell-based. As to conditions: read-out: TNFα Inhibitory Activity, Human Whole Blood (Test Example 3). How it is done:
The test compound dissolved in dimethyl sulfoxide was added to a 96-well plate, and RPMI-1640 medium and human peripheral blood containing sodium heparin were added, followed by culture at 37° C. under 5% CO2 for 1 hour. A medium containing only dimethyl sulfoxide instead of the test compound was added to the control well. To each well, lipopolysaccharide (final concentration 10 ng/mL) as a TNFα production stimulant, or phytohaemagglutinin (final concentration 20 μg/mL) as an IL-17A production stimulant, or CytoStim reagent ( 1/100 concentration) and CD28 antibody (final concentration 2.5 ng/mL) as an IL-4 production stimulant and an IL-5 production stimulant were added, followed by culture at 37° C. under 5% CO2. The culture was carried out for about 18 hours for the evaluation of the amount of TNFα, and for about 48 hours for the evaluation of the amounts of IL-17A, IL-4, and IL-5.
After collecting the culture supernatant after culturing, the amount of each cytokine was measured by the sandwich ELISA method. The cytokine production suppression rate (inhibition rate) by the test compound was calculated by the following formula from the cytokine production amount when the test compound was added, with the cytokine production amount for the control well as 100%. Inhibition Rate={1−(Cytokine Amount at Addition of Each Test Compound)/(Cytokine Amount for Control Well)}×100
In addition, the cytokine inhibitory activity (concentration for the inhibition rate of 50%) of the test compound was calculated from the inhibition curves based on the inhibition rates for various concentrations of the test compound.
The measurement results obtained by measuring the TNFα inhibitory activity and IL-5 inhibitory activity (50% inhibitory concentration) of the test compounds by the above method were evaluated in accordance with the following evaluated basis; A: less than 100 nM, B: 100 nM or more and less than 500 nM, and C: 500 nM or more. In addition, the measurement results obtained by measuring the IL-17A inhibitory activity and IL-4 inhibitory activity (50% inhibitory concentration) of the test compounds were evaluated in accordance with the following evaluated basis; A: less than 500 nM, B: 500 nM or more and less than 5000 nM, and C: 5000 nM or more.

The mark [5] stands for this setting: finer grading of compounds rated A in Evaluation 1, read-out: PDE4 Inhibitory Activity (Evaluation 2).
Where [6] appears, read: scintillation proximity assay, read-out: PDE4 Inhibitory Activity (Evaluation 1; concentration for the inhibition rate of 50%).
Setting [7] is: THP-1, THP1 cells differentiated into macrophages, lipopolysaccharide 1 μg/mL, about 7 hours.
The mark [8] stands for this setting: Homo sapiens, human whole blood.

Take `CC(C)(O)C(F)(F)Oc1ccc(-c2nccs2)c2oc(N3CC4CC(C3)N4)nc12` [Example 248, 1-((2-(3,6-Diazabicyclo[3.1.1]heptan-3-yl)-7-(thiazol-2-yl)benzo[d]oxazol-4-yl)oxy)-1,1-difluoro-2-methylpropan-2-ol]: the IC50 was at most 1 nM in assay [1] (setting [5]), below 100 nM in assay [1] (setting [6]), below 1000 nM in assay [3] (setting [7]) and below 100 nM in assay [4] (setting [8]). Further, the PDE4 inhibitory activity entry in assay [1] is reported as “particularly excellent”. Also, in assay [2], the “Mouse DTH Model (Test Example 11), Topical: edema suppression rate” value (shortened to “Mouse DTH Model”) is listed as “A (A: 60% or more)”.
For the molecule `CC(O)C(F)(F)Oc1ccc(-c2nccs2)c2oc(N3CC4CC(C3)N4)nc12` (single isomer, unassigned) [Example 252, 1-((2-(3,6-Diazabicyclo[3.1.1]heptan-3-yl)-7-(thiazol-2-yl)benzo[d]oxazol-4-yl)oxy)-1,1-difluoropropan-2-ol], the IC50 was at most 1 nM in assay [1] (setting [5]), below 100 nM in assay [1] (setting [6]) and below 100 nM in assay [4] (human whole blood). Also, in assay [1], the PDE4 inhibitory activity result is “particularly excellent”. Besides, the “Mouse DTH Model” value in assay [2] is “B (B: 40% or more and less than 60%)”.
For the molecule `FC(F)(F)Oc1ccc(-c2nccs2)c2oc(N3CC4CC(C3)N4)nc12` [Example 29, 2-(3,6-Diazabicyclo[3.1.1]heptan-3-yl)-7-(thiazol-2-yl)-4-(trifluoromethoxy)benzo[d]oxazole], the IC50 in assay [1] (setting [5]) was 1 to 11 nM; in assay [1] (scintillation proximity assay, class symbols of Evaluation 1, read-out: PDE4 Inhibitory Activity (concentration for the inhibition rate of 50%, IC50), Evaluation 1) it was below 100 nM; in assay [3] (setting [7]), below 1000 nM; in assay [4] (setting [8]) it was below 100 nM. In addition, the PDE4 inhibitory activity entry in assay [1] is “particularly excellent”. Moreover, the “Mouse DTH Model” value in assay [2] is listed as “A (A: 60% or more)”.
Take `CCOc1cc([C@@H](CS(C)(=O)=O)N2C(=O)c3cccc(NC(C)=O)c3C2=O)ccc1OC` [apremilast, reference compound]: the IC50 in assay [1] (setting [5]) is 11 to 100 nM; in assay [3] (THP-1, 7 h) it was above 1000 nM; in assay [4] (Homo sapiens) it was above 500 nM.
